Test results as given in patent publication US20090203749A1, “AGENT FOR CONTROL OF DEGRANULATION REACTION AND CYTOKINE PRODUCTION” (RIKEN, priority 2005, published 2009).

Legend:
[1] = tested on: bone marrow-derived mast cells; assay: antigen stimulation-dependent chemical mediator (β-hexosaminidase) release (degranulation) from mast cells; assay type: cell-based; details: TPEN 0, 2, 5 and 10 μM; IgE-sensitized mast cells stimulated with DNP-HSA for 30 minutes; FIG. 1
Method: The mast cells used were bone marrow-derived mast cells whose differentiation was induced by culturing bone marrow cells with interleukin-3 for 5 weeks. The obtained bone marrow-derived mast cells (1×10^7 cells) were sensitized with 1 μg/mL IgE antibody (SPE-7 clone; available from SIGMA) for 6 hours. After sensitization, the cells were resuspended in Tyrode's buffer (pH 7.4). The composition of the Tyrode's buffer is as described in Table 1.
The obtained mast cell suspension was stimulated with an antigen (DNP-HSA; dinitrophenyl conjugated Human Serum Albumin; available from SIGMA) at each concentration (shown in FIG. 1) for 30 minutes. To investigate the effect of zinc ions, a zinc ion chelator TPEN (0, 2, 5 and 10 μM) was allowed to coexist with the cells for 2 hours during the sensitization period and for 30 minutes of the stimulation. Chemical mediator β-hexosaminidase released from the mast cells was measured. The activity of β-hexosaminidase was measured with an absorption spectrometer at wavelength of 405 nm by using 4-nitrophenyl N-acetyl-β-D-glucosaminide (available from SIGMA) as a substrate. The extracellular release of entire β-hexosaminidase present in the cell was defined as 100%.

[2] = tested on: bone marrow-derived mast cells; assay: restoration of TPEN effect on β-hexosaminidase release by enforced introduction of zinc ion; assay type: cell-based; details: TPEN 10 μM; 1 μM pyrithione and zinc ions during DNP-HSA stimulation; FIG. 2
Method: As mast cells sensitized with IgE antibody, the cells prepared in the same way as in Example 1 were used. After sensitization, the mast cells were resuspended in Tyrode's buffer. A zinc ion chelator TPEN (10 μM) was allowed to coexist with the cells for 2 hours during the sensitization period and for 30 minutes of the stimulation. To introduce zinc ions into the cells, the cells were treated with 1 μM pyrithione (Molecular probes, p-24193) during the stimulation, and zinc ions were added at each concentration (shown in FIG. 2) to Tyrode's buffer. The activity of β-hexosaminidase was measured in the same way as in Example 1. TPEN-untreated cells were used as a control, and the extracellular release of entire β-hexosaminidase present in the cell was defined as 100%.

[3] = tested on: bone marrow-derived mast cells; assay: cytokine production (IL-6 and TNF-α) of mast cells, ELISA; assay type: cell-based; details: TPEN 0, 2, 5 and 10 μM; DNP-HSA 100 ng/ml for 6 hours; FIG. 3
Method: As mast cells sensitized with IgE antibody, the cells prepared in the same way as described in Example 1 were used. After sensitization, the mast cells were resuspended in Tyrode's buffer. The mast cell suspension was stimulated with an antigen (DNP-HSA) at a concentration of 100 ng/ml for 6 hours. To investigate the effect of zinc ions, a zinc ion chelator TPEN (0, 2, 5 and 10 μM) was allowed to coexist with the cells for 2 hours during sensitization and for 6 hours of the stimulation.
The concentrations of cytokines (IL-6 and TNF-α) in the supernatant were determined using ELISA (BIOSOURCE).

[4] = tested on: passive cutaneous anaphylaxis; assay: passive cutaneous anaphylaxis (type I allergy) model, Evans blue dye leakage; assay type: in vivo; details: TPEN intraperitoneally 30 minutes before DNP-BSA challenge; mouse ear; FIG. 4
Method: Mouse (6 week-old female, Balb/c Ajc1, CLEA Japan) was sensitized by subcutaneously administering 0.5 μg of IgE antibody (SPE-7, SIGMA) into the ear in order to induce passive cutaneous anaphylaxis. 30 minutes later, passive cutaneous anaphylaxis was induced by intravenous injection of 250 μg of antigen DNP-BSA (COSMOBIO) and 1.25 mg of Evans blue (SIGMA) into the tail of the mouse. In order to digitalize Evans blue dye leakage, the dye was extracted from the ear of the mouse using formamide. The extracted dye was measured by absorbance at wavelength of 620 nm. The amount of dye in each experiment was calculated from the analytical curve obtained by known amounts of Evans blue.

c1ccc(CN(CCN(Cc2ccccn2)Cc2ccccn2)Cc2ccccn2)nc1 [TPEN, N,N,N′,N′-tetrakis(2-pyridylmethyl)ethylenediamine]
chemical mediator (β-hexosaminidase) release [1]: concentration-dependent suppressive effect | suppressive effect on the chemical mediator release after addition of zinc ions [2]: restored by the addition of the zinc ions | cytokine production (IL-6 and TNF-α in supernatant) [3]: dose dependent suppression | dye leakage of Evans blue [4]: suppressed dose-dependently
